# ChEMBL document CHEMBL3044584, “4-Sulfenyl-2-carbamoyl-4-isoxazolin-3-ones: biological isostere to 4-chloro-2-carbamoyl-4-isoxazolin-3-ones” (Chem Pharm Bull (Tokyo), 2000)
# How the values were obtained:
# Cyperus serotinus [1] = test: Pre-emergent herbicidal activity against Cyperus serotinus assessed as growth inhibition at 10 g/a after 3 weeks in greenhouse conditions; format: functional; conditions: pre-emergence, 504 h, read-out: GI
# [2] = Phytotoxicity against Oryza sativa (rice) assessed as growth inhibition at 10 g/a after 3 weeks in greenhouse conditions; format: organism-based; conditions: in vivo, read-out: GI
# Eleocharis kuroguwai [3] = test: Pre-emergent herbicidal activity against Eleocharis kuroguwai assessed as growth inhibition at 10 g/a after 3 weeks in greenhouse conditions; format: functional; conditions: pre-emergence, 504 h, read-out: GI
# Echinochloa oryzicola [4] = test: Pre-emergent herbicidal activity against Echinochloa oryzicola assessed as growth inhibition at 10 g/a after 3 weeks in greenhouse conditions; format: functional; conditions: pre-emergence, 504 h, read-out: GI
# [5] = test system: Schoenoplectiella juncoides; test: Pre-emergent herbicidal activity against Schoenoplectiella juncoides assessed as growth inhibition at 10 g/a after 3 weeks in greenhouse conditions; format: functional; conditions: pre-emergence, 504 h, read-out: GI
# Lindernia procumbens [6] = test: Pre-emergent herbicidal activity against Lindernia procumbens assessed as growth inhibition at 10 g/a after 3 weeks in greenhouse conditions; format: functional; conditions: pre-emergence, 504 h, read-out: GI
# Eleocharis acicularis [7] = test: Pre-emergent herbicidal activity against Eleocharis acicularis assessed as growth inhibition at 10 g/a after 3 weeks in greenhouse conditions; format: functional; conditions: pre-emergence, 504 h, read-out: GI
# [8] = Phytotoxicity against Oryza sativa (rice) assessed as growth inhibition at 25 g/a after 3 weeks in greenhouse conditions; format: organism-based; conditions: in vivo, read-out: GI
# Eleocharis kuroguwai [9] = test: Pre-emergent herbicidal activity against Eleocharis kuroguwai assessed as growth inhibition at 25 g/a after 3 weeks in greenhouse conditions; format: functional; conditions: pre-emergence, 504 h, read-out: GI
# [10] = test system: Schoenoplectiella juncoides; test: Pre-emergent herbicidal activity against Schoenoplectiella juncoides assessed as growth inhibition at 25 g/a after 3 weeks in greenhouse conditions; format: functional; conditions: pre-emergence, 504 h, read-out: GI
# Eleocharis acicularis [11] = test: Pre-emergent herbicidal activity against Eleocharis acicularis assessed as growth inhibition at 25 g/a after 3 weeks in greenhouse conditions; format: functional; conditions: pre-emergence, 504 h, read-out: GI
# Lindernia procumbens [12] = test: Pre-emergent herbicidal activity against Lindernia procumbens assessed as growth inhibition at 25 g/a after 3 weeks in greenhouse conditions; format: functional; conditions: pre-emergence, 504 h, read-out: GI
# Cyperus serotinus [13] = test: Pre-emergent herbicidal activity against Cyperus serotinus assessed as growth inhibition at 25 g/a after 3 weeks in greenhouse conditions; format: functional; conditions: pre-emergence, 504 h, read-out: GI
# Echinochloa oryzicola [14] = test: Pre-emergent herbicidal activity against Echinochloa oryzicola assessed as growth inhibition at 25 g/a after 3 weeks in greenhouse conditions; format: functional; conditions: pre-emergence, 504 h, read-out: GI
Compound,inhibition of growth at 1000 g/ha (Cyperus serotinus [1]) [%],inhibition at 504 h [2] [%],inhibition of growth at 1000 g/ha (Eleocharis kuroguwai [3]) [%],inhibition of growth at 1000 g/ha (Echinochloa oryzicola [4]) [%],inhibition of growth at 1000 g/ha [5] [%],inhibition of growth at 1000 g/ha (Lindernia procumbens [6]) [%],inhibition of growth at 1000 g/ha (Eleocharis acicularis [7]) [%],inhibition at 504 h [8] [%],inhibition of growth at 2500 g/ha (Eleocharis kuroguwai [9]) [%],inhibition of growth at 2500 g/ha [10] [%],inhibition of growth at 2500 g/ha (Eleocharis acicularis [11]) [%],inhibition of growth at 2500 g/ha (Lindernia procumbens [12]) [%],inhibition of growth at 2500 g/ha (Cyperus serotinus [13]) [%],inhibition of growth at 2500 g/ha (Echinochloa oryzicola [14]) [%]
CCSc1c(C)on(C(=O)N(c2ccc(C)cc2)C(C)C)c1=O,> 91,< 10,> 91,> 91,> 91,31,71,–,–,–,–,–,–,–
CCSc1c(C)on(C(=O)N(c2ccc(Cl)cc2Cl)C(C)C)c1=O,> 91,< 10,> 91,> 91,> 91,71,71,–,–,–,–,–,–,–
COCCSc1c(C)on(C(=O)N(c2ccc(Cl)cc2)C(C)C)c1=O,> 91,< 10,> 91,> 91,> 91,31,51,11,> 91,> 91,71,51,> 91,> 91
Cc1on(C(=O)N(c2ccc(Cl)cc2)C(C)C)c(=O)c1SC(F)F,> 91,11,> 91,> 91,> 91,51,> 91,–,–,–,–,–,–,–
CCSc1c(C)on(C(=O)N(CC)c2ccc(Cl)cc2)c1=O,> 91,31,> 91,> 91,> 91,71,71,–,–,–,–,–,–,–
CCSc1c(C)on(C(=O)N(C)c2ccc(Cl)cc2)c1=O,–,–,–,–,–,–,–,11,> 91,71,71,71,> 91,> 91
CCSc1c(CC)on(C(=O)N(c2ccc(Cl)cc2)C(C)C)c1=O,71,< 10,> 91,> 91,51,51,51,31,> 91,71,71,71,> 91,> 91
CCSc1c(C)on(C(=O)N(c2ccc(F)cc2)C(C)C)c1=O,–,–,–,–,–,–,–,51,> 91,> 91,> 91,> 91,> 91,> 91
CCSc1c(C)on(C(=O)N(c2ccc(C#N)cc2)C(C)C)c1=O,> 91,51,> 91,> 91,> 91,71,71,–,–,–,–,–,–,–
CCCN(C(=O)n1oc(C)c(SCC)c1=O)c1ccc(Cl)cc1,> 91,11,> 91,> 91,> 91,> 91,71,–,–,–,–,–,–,–
CCCSc1c(C)on(C(=O)N(c2ccc(Cl)cc2)C(C)C)c1=O,> 91,< 10,> 91,> 91,> 91,51,> 91,31,> 91,> 91,> 91,> 91,> 91,> 91
CCSc1c(C)on(C(=O)N(c2cccc(C(F)(F)F)c2)C(C)C)c1=O,> 91,< 10,> 91,> 91,71,51,31,–,–,–,–,–,–,–
CCc1on(C(=O)N(c2ccc(Cl)cc2)C(C)C)c(=O)c1SC(C)C,–,–,–,–,–,–,–,< 10,> 91,> 91,51,51,> 91,> 91
CCSc1c(C)on(C(=O)N(c2cccc([N+](=O)[O-])c2)C(C)C)c1=O,> 91,11,> 91,> 91,> 91,71,71,–,–,–,–,–,–,–
Cc1on(C(=O)N(c2ccc(Cl)cc2)C(C)C)c(=O)c1SC(C)C,> 91,< 10,> 91,> 91,> 91,51,51,31,> 91,> 91,71,> 91,> 91,> 91
CCSc1c(C)on(C(=O)N(c2ccc(Cl)cc2)C(C)C)c1=O,> 91,< 10,> 91,> 91,> 91,> 91,> 91,11,> 91,> 91,> 91,> 91,> 91,> 91
C#CCSc1c(C)on(C(=O)N(c2ccc(Cl)cc2)C(C)C)c1=O,> 91,< 10,> 91,> 91,> 91,51,51,31,> 91,> 91,51,71,> 91,> 91
CCCSc1c(C)on(C(=O)N(c2ccc(F)cc2F)C(C)C)c1=O,> 91,11,> 91,> 91,> 91,> 91,> 91,–,–,–,–,–,–,–
